{
  "source": "patent US12358899B2",
  "about": "“Thyroid hormone receptor agonists and uses thereof” (XIZANG HAISCO PHARMACEUTICAL CO., LTD., priority 2018, dated 2025)",
  "tested_on": "C57BL/6cnc mice",
  "experiment": "Synergistic effect of Example 7 with other NASH compounds in mouse model",
  "type": "in vivo",
  "conditions": "NASH mice, single agents, 2-week treatment",
  "source_text": "There are other candidates being developped for inflammation, metabolism syndromes or NASH These include glucagon-like peptide-1 (GLP-1) receptor agonist liraglutide, peroxisome proliferator-activated receptor-α and -β (PPAR-α/δ) agonist elafibranor, and nuclear erythroid 2-related factor 2 (NRF2) activator bardoxolone methyl (CDDO-Me). These candidates target different proteins and pathways, therefore have different mechanisms of action related to steatosis, inflammation, and fibrosis.\nC57BL/6cnc mice were fed with high-fat diet containing 60 kacl % fat and 0.10% methionine (no added choline) (Research Diets, A06071302) for 12 weeks to induce NASH model. After 12-week diet induction, the mice had increased plasma levels of TC, LDL-c, ALT, and fibrosis markers. […] An Example 7 alone group and a vehicle group were also set up for controls. […] After 2-week treatment, serum biochemistry was measured; liver was collected to measure liver TC and TG. Livers were punched in 2 mm diameter and fixed, sectioned and stained with Sirius Red, and the fibrosis and steatosis were scored.",
  "data": [
    {"smiles": "CSc1ccc(C(=O)/C=C/c2cc(C)c(OC(C)(C)C(=O)O)c(C)c2)cc1", "note": "[Elafibranor, reference compound]", "values": [
      {"measurement": "liver weight, liver TC, liver TG, plasma TC, LDL-c, ALT, fibrosis, steatosis", "result": "reduced all or some of these parameters"}
    ]}
  ]
}
